Laboratory results published in PMC4839570, “Novel Anthra[1,2-c][1,2,5]Thiadiazole-6,11-Diones as Promising Anticancer Lead Compounds: Biological Evaluation, Characterization & Molecular Targets Determination” (PLoS ONE, 2016).
Read-outs that look alike come from different tables or passages of the source.

Key:
MOLT-4 = experiment: NCI-60 cytotoxicity screen; assay type: cell-based
HOP-62 = experiment: NCI-60 cytotoxicity screen; assay type: cell-based
NCI-H322M = experiment: NCI-60 cytotoxicity screen; assay type: cell-based
HCT-116 = experiment: NCI-60 cytotoxicity screen; assay type: cell-based
HT29 = experiment: NCI-60 cytotoxicity screen; assay type: cell-based
SF-539 = experiment: NCI-60 cytotoxicity screen; assay type: cell-based
LOX IMVI = experiment: NCI-60 cytotoxicity screen; assay type: cell-based
MALME-3M = experiment: NCI-60 cytotoxicity screen; assay type: cell-based
IGROV1 = experiment: NCI-60 cytotoxicity screen; assay type: cell-based
NCI/ADR-RES = experiment: NCI-60 cytotoxicity screen; assay type: cell-based
ACHN [1] = experiment: NCI-60 cytotoxicity screen; assay type: cell-based
TK-10 = experiment: NCI-60 cytotoxicity screen; assay type: cell-based
DU-145 [2] = experiment: NCI-60 cytotoxicity screen; assay type: cell-based
U251 = experiment: JFCR-39 cytotoxicity screen; assay type: cell-based
A549 = experiment: JFCR-39 cytotoxicity screen; assay type: cell-based
DMS273 = experiment: JFCR-39 cytotoxicity screen; assay type: cell-based
DMS114 = experiment: JFCR-39 cytotoxicity screen; assay type: cell-based
ACHN [3] = experiment: JFCR-39 cytotoxicity screen; assay type: cell-based
MKN7 = experiment: JFCR-39 cytotoxicity screen; assay type: cell-based
MKN74 = experiment: JFCR-39 cytotoxicity screen; assay type: cell-based
DU-145 [4] = experiment: JFCR-39 cytotoxicity screen; assay type: cell-based
[5] = test system: JFCR 39 human cancer cell lines; experiment: JFCR-39 screen, means, ranges and selectivity over panels; assay type: cell-based; conditions: for GI50: Homo sapiens
Procedure: Both NSC745885 and NSC757963 satisfied the pre-determined threshold inhibition criteria of the NCI-60 One-Dose Screening, so they were tested against the panels of 60 cancer cell lines of NCI (NCI-60) and 39 cancer cell lines of JFCR (JFCR-39), each cell line was tested at five small doses of our compounds. Results are expressed as the 50% growth inhibition concentration (GI50), the 50% lethal concentration (LC50) and the total growth inhibition (TGI), compared to the values of untreated control cells.
To characterize the selectivity of NSC745885 and NSC757963 further among the different types of cancer, we determined their selectivity ratios towards each cell line subpanel used in the cytotoxicity experiments. […] The promising activity of this compound is evident from the small mean GI50 values. […] The strongest activity was towards the leukemia subpanel and the least one was towards the colon cancer subpanel. […] The strongest activity was towards the melanoma subpanel and the least one was towards the colon cancer subpanel.
All cell lines were published before.

OVCAR-3 = experiment: cells; conditions: Homo sapiens, OVCAR-3, read-out: mean log10 of the GI50 values (converted)
[6] = Homo sapiens, Fig 7, read-out: mean log10 of the GI50 values (converted)
[7] = Homo sapiens, five-dose, read-out: GI50
[8] = Homo sapiens, five-dose, read-out: LC50 (the source's name)
[9] = Homo sapiens, single dose 10 μM, read-out: growth inhibition
[10] = Homo sapiens, read-out: LC50 (the source's name)

## O=C1c2ccccc2C(=O)c2c1ccc1nsnc21 [NSC745885, anthra[1,2-c][1,2,5]thiadiazole-6,11-dione]
MOLT-4; [6]
  GI50: 0.891 µM
MOLT-4; [7]
  GI50: 0.49 µM
MOLT-4; [8]
  CC50: 4.71 µM
MOLT-4; five-dose
  TGI: 1.84 µM
HOP-62; [6]
  GI50: 2.14 µM
HOP-62; [7]
  GI50: 1.28 µM
HOP-62; [8]
  CC50: 8.53 µM
HOP-62; [9]
  inhibition at 10 µM: 100%
HOP-62; five-dose
  TGI: 3.31 µM
NCI-H322M; [6]
  GI50: 36.3 µM
NCI-H322M; [7]
  GI50: 17.4 µM
NCI-H322M; [8]
  CC50: > 100 µM
NCI-H322M; five-dose
  TGI: 47.8 µM
HCT-116; [6]
  GI50: 2.34 µM
HCT-116; [7]
  GI50: 1.93 µM
HCT-116; [8]
  CC50: > 100 µM
HCT-116; five-dose
  TGI: 5.40 µM
HT29; Homo sapiens, HT-29, Fig 7, read-out: mean log10 of the GI50 values (converted)
  GI50: 6.03 µM
HT29; Homo sapiens, HT-29, five-dose, read-out: GI50
  GI50: 13.4 µM
HT29; Homo sapiens, HT-29, five-dose, read-out: LC50 (the source's name)
  CC50: > 100 µM
HT29; five-dose
  TGI: 50.4 µM
SF-539; [6]
  GI50: 1.48 µM
SF-539; [7]
  GI50: 1.46 µM
SF-539; [8]
  CC50: 5.91 µM
SF-539; five-dose
  TGI: 2.94 µM
LOX IMVI; Homo sapiens, LOXIMVI, Fig 7, read-out: mean log10 of the GI50 values (converted)
  GI50: 0.912 µM
LOX IMVI; [7]
  GI50: 0.82 µM
LOX IMVI; [8]
  CC50: 4.86 µM
LOX IMVI; five-dose
  TGI: 2.13 µM
MALME-3M; [6]
  GI50: 2 µM
MALME-3M; [7]
  GI50: 1.66 µM
MALME-3M; [8]
  CC50: 5.96 µM
MALME-3M; five-dose
  TGI: 3.15 µM
IGROV1; Homo sapiens, IGROV-1, Fig 7, read-out: mean log10 of the GI50 values (converted)
  GI50: 1.38 µM
IGROV1; Homo sapiens, IGROV-1, five-dose, read-out: GI50
  GI50: 1.36 µM
IGROV1; Homo sapiens, IGROV-1, five-dose, read-out: LC50 (the source's name)
  CC50: 6.35 µM
IGROV1; five-dose
  TGI: 2.94 µM
NCI/ADR-RES; [6]
  GI50: 0.891 µM
NCI/ADR-RES; [7]
  GI50: 1.86 µM
NCI/ADR-RES; [8]
  CC50: > 100 µM
NCI/ADR-RES; five-dose
  TGI: 12.6 µM
ACHN [1]; [6]
  GI50: 1.58 µM
ACHN [1]; [7]
  GI50: 1.46 µM
ACHN [1]; [8]
  CC50: 5.27 µM
ACHN [1]; [9]
  inhibition at 10 µM: 94.3%
ACHN [1]; five-dose
  TGI: 2.77 µM
TK-10; [6]
  GI50: 10 µM
TK-10; [7]
  GI50: 2.85 µM
TK-10; [8]
  CC50: 50.4 µM
TK-10; five-dose
  TGI: 10.9 µM
DU-145 [2]; [6]
  GI50: 3.55 µM
DU-145 [2]; [7]
  GI50: 1.67 µM
DU-145 [2]; [8]
  CC50: 6.27 µM
DU-145 [2]; five-dose
  TGI: 3.24 µM
U251
  TGI: 3.1 µM
U251; Homo sapiens, U-251
  GI50: 1.6 µM
U251; Homo sapiens, U-251, read-out: LC50 (the source's name)
  CC50: 5.8 µM
A549
  TGI: 41.0 µM
A549; Homo sapiens
  GI50: 19 µM
A549; [10]
  CC50: 89 µM
DMS273
  TGI: 3.8 µM
DMS273; Homo sapiens, DMS-273
  GI50: 2 µM
DMS273; Homo sapiens, DMS-273, read-out: LC50 (the source's name)
  CC50: 7 µM
DMS114
  TGI: 1.8 µM
DMS114; Homo sapiens, DMS-114
  GI50: 0.5 µM
DMS114; Homo sapiens, DMS-114, read-out: LC50 (the source's name)
  CC50: 5 µM
ACHN [3]
  TGI: 3.8 µM
ACHN [3]; Homo sapiens
  GI50: 1.9 µM
ACHN [3]; [10]
  CC50: 7.6 µM
MKN7
  TGI: 3.7 µM
MKN7; Homo sapiens, MKN-7
  GI50: 1.1 µM
MKN7; Homo sapiens, MKN-7, read-out: LC50 (the source's name)
  CC50: 17 µM
MKN74
  TGI: 4.7 µM
MKN74; Homo sapiens, MKN-74
  GI50: 1.8 µM
MKN74; Homo sapiens, MKN-74, read-out: LC50 (the source's name)
  CC50: > 100 µM
DU-145 [4]
  TGI: 3.5 µM
DU-145 [4]; Homo sapiens
  GI50: 2 µM
DU-145 [4]; [10]
  CC50: 6.1 µM
[5]
  selectivity ratios of the JFCR subpanels (for NSC745885 except melanoma): less than 3
[5]; JFCR Breast Cancer, read-out: Mean GI50 of subpanel
  GI50: 1.66 µM
[5]; JFCR CNS Cancer, read-out: Mean GI50 of subpanel
  GI50: 1.87 µM
[5]; JFCR Colon Cancer, read-out: Mean GI50 of subpanel
  GI50: 5.36 µM
[5]; JFCR Lung Cancer, read-out: Mean GI50 of subpanel
  GI50: 4.13 µM
[5]; JFCR Melanoma, read-out: Mean GI50 of subpanel
  GI50: 0.86 µM
[5]; JFCR Ovarian Cancer, read-out: Mean GI50 of subpanel
  GI50: 1.63 µM
[5]; JFCR Prostate Cancer, read-out: Mean GI50 of subpanel
  GI50: 1.65 µM
[5]; JFCR Renal Cancer, read-out: Mean GI50 of subpanel
  GI50: 2.1 µM
[5]; JFCR Stomach Cancer, read-out: Mean GI50 of subpanel
  GI50: 1.71 µM
[5]; all JFCR subpanels, read-out: mean GI50 values of the JFCR subpanels, range
  GI50: 0.86 to 5.36 µM
[5]; equivalent to MG-MID, read-out: Mean GI50 of all JFCR-39 cell line panels
  GI50: 2.62 µM
[5]; five-dose, read-out: JFCR-39 GI50 values, range over cell lines
  GI50: 0.47 to 19 µM
[5]; JFCR Breast Cancer
  Selectivity ratio: 1.58
[5]; JFCR CNS Cancer
  Selectivity ratio: 1.4
[5]; JFCR Colon Cancer
  Selectivity ratio: 0.49
[5]; JFCR Lung Cancer
  Selectivity ratio: 0.63
[5]; JFCR Melanoma
  Selectivity ratio: 3.04
[5]; JFCR Ovarian Cancer
  Selectivity ratio: 1.6
[5]; JFCR Prostate Cancer
  Selectivity ratio: 1.59
[5]; JFCR Renal Cancer
  Selectivity ratio: 1.25
[5]; JFCR Stomach Cancer
  Selectivity ratio: 1.53
OVCAR-3
  GI50: 1.35 µM
